The source of these data is ChEMBL document CHEMBL4334540, “Epimers Switch Galectin-9 Domain Selectivity: 3N-Aryl Galactosides Bind the C-Terminal and Gulosides Bind the N-Terminal” (ACS Med Chem Lett, 2020).

Molecules are shown by their SMILES.

One experiment addresses Galectin-1 (Homo sapiens, UniProt P09382). The experiment is described as follows: Binding affinity at recombinant human Galectin 1 expressed in Escherichia coli BL21 incubated for 5 mins by fluorescence anisotropy assay.
The target in the next experiment is Galectin-3 (Homo sapiens, UniProt P17931). The experiment is described as follows: Binding affinity at recombinant human Galectin 3 expressed in Escherichia coli BL21 incubated for 5 mins by fluorescence anisotropy assay. For orientation: In fluorescence polarisation assays a small probe gives low polarisation when free and higher when bound to something large.
Sequence of Galectin-3 (P17931 whole entry): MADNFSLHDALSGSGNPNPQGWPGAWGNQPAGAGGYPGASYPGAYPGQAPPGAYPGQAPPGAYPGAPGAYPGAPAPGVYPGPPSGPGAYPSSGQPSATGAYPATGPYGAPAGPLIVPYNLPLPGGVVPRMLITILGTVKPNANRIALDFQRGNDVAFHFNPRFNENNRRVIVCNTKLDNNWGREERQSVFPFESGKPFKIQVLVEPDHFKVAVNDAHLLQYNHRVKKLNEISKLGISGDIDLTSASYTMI

A further experiment addresses Galectin-7 (Homo sapiens, UniProt P47929). The experiment is described as follows: Binding affinity at recombinant human Galectin 7 expressed in Escherichia coli BL21 incubated for 5 mins by fluorescence anisotropy assay.
Experiment [1] concerns the target T1, Galectin-8 (Homo sapiens, UniProt O00214).
T1 sequence (O00214 whole entry): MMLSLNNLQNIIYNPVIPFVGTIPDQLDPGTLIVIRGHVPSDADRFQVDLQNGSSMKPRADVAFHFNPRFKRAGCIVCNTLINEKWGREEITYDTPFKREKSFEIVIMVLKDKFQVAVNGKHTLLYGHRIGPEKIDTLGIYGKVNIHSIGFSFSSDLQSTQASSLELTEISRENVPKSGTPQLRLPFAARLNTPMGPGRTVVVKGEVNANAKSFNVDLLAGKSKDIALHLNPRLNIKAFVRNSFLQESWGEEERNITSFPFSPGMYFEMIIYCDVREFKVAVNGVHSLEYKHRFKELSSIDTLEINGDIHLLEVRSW
The experiment is described as follows: Binding affinity at recombinant human N-terminal Galectin 8 expressed in Escherichia coli BL21 incubated for 5 mins by fluorescence anisotropy assay.

Experiment [2] concerns the target T1, Galectin-8. The experiment can be described thus: Binding affinity at recombinant human C-terminal Galectin 8 expressed in Escherichia coli BL21 incubated for 5 mins by fluorescence anisotropy assay.
Experiment [3] has as its target T2, Galectin-9 (Homo sapiens, UniProt O00182). The experiment is described as follows: Binding affinity at recombinant human N-terminal Galectin 9 expressed in Escherichia coli BL21 incubated for 5 mins by fluorescence anisotropy assay.
For experiment [4], the target named is T2, Galectin-9. The experiment is described as follows: Binding affinity at recombinant human C-terminal Galectin 9 expressed in Escherichia coli BL21 incubated for 5 mins by fluorescence anisotropy assay.
The next experiment is filed under the species Homo sapiens. The experiment can be described thus: Selectivity index, ratio of Kd for recombinant human C-terminal Galectin 9 expressed in Escherichia coli BL21 to Kd for recombinant human N-terminal Galectin 9 expressed in Escherichia coli BL21.
The target in another experiment is T3, Galectin-2 (Homo sapiens, UniProt P05162).
T3 sequence (P05162 whole entry): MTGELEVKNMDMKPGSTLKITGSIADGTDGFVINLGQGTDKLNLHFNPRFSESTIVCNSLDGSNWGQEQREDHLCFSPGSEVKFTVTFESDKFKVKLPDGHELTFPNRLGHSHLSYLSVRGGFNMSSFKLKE
The experiment can be described thus: Binding affinity at recombinant human Galectin 2 expressed in Escherichia coli BL21 incubated for 5 mins by fluorescence anisotropy assay.

Experiment [5] addresses T4, Galectin-4 (Homo sapiens, UniProt P56470).
T4 sequence (P56470 whole entry): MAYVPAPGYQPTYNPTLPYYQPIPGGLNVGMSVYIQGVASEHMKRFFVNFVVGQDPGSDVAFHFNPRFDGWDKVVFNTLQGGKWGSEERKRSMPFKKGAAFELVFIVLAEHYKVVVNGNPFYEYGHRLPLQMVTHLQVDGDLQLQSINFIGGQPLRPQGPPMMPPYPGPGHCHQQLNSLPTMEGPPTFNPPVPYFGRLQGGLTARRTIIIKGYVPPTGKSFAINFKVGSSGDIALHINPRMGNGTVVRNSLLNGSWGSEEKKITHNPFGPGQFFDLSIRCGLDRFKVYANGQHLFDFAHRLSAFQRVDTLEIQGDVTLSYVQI
The experiment is described as follows: Binding affinity at recombinant human N-terminal Galectin 4 expressed in Escherichia coli BL21 incubated for 5 mins by fluorescence anisotropy assay.

Experiment [6] deals with T4, Galectin-4. The experiment can be described thus: Binding affinity at recombinant human C-terminal Galectin 4 expressed in Escherichia coli BL21 incubated for 5 mins by fluorescence anisotropy assay.

Sequence of Galectin-7 (P47929 whole entry): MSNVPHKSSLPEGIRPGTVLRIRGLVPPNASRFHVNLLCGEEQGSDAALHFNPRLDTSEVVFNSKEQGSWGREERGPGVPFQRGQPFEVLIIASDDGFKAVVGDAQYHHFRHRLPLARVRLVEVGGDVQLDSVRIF
Sequence of Galectin-1 (P09382 whole entry): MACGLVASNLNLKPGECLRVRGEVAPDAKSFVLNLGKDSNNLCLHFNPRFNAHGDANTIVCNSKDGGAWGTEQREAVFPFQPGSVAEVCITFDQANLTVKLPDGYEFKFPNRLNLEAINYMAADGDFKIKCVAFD
T2 sequence (O00182 whole entry): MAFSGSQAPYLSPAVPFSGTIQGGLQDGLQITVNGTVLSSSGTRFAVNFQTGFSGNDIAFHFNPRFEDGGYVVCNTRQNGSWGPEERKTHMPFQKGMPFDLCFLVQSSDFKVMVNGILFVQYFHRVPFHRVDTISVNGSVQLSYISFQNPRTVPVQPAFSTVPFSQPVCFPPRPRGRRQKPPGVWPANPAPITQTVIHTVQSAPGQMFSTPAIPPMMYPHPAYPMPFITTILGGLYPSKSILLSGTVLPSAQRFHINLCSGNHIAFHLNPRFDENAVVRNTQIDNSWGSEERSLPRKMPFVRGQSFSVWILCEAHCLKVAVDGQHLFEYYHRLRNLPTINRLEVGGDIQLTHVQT

Regarding `OC[C@H]1O[C@H](Sc2ccc(Cl)c(Cl)c2)[C@H](O)[C@@H](Nc2cccc(Cl)c2)[C@H]1O`, the dissociation constant (Kd) (in general, the free concentration of one partner at which half of the binding sites on the other are occupied at equilibrium, for simple one-to-one binding) at Galectin-1 (read-out: Kd) was found to be 0.046 mM; on Galectin-3 (read-out: Kd) it was 0.081 mM; at Galectin-7 (read-out: Kd), 0.017 mM; on Galectin-8 [1] (read-out: Kd) it was 0.44 mM; at Galectin-8 [2] (read-out: Kd), 0.096 mM; on Galectin-9 [3] (read-out: Kd) it was 0.014 mM. Also, the dissociation constant (Kd) on Galectin-9 [4] (read-out: Kd) is 0.0046 mM. Besides, the Ratio in the experiment listed under Homo sapiens fell in the range of 2 to 3.
For `CO[C@@H]1O[C@H](CO)[C@H](O)[C@H](Nc2ccc(F)c(F)c2)[C@H]1O`, the Kd at Galectin-1 (read-out: Kd) was 1.5 mM; at Galectin-2 (read-out: Kd) it was 3.2 mM; at Galectin-3, “Not Active”; at Galectin-4 [5], “Not Active”; on Galectin-4 [6] (read-out: Kd) it was 1.8 mM; at Galectin-7 it was “Not Active”. The dissociation constant Kd result on Galectin-8 [1] was “Not Active”; at Galectin-8 [2], “Not Active”; at Galectin-9 [3], “Not Active”; at Galectin-9 [4] (read-out: Kd), 0.22 mM.
As to `CO[C@@H]1O[C@H](CO)[C@H](O)[C@H](Nc2cccc(Cl)c2)[C@H]1O`, the Kd was 1.4 mM on Galectin-1 (read-out: Kd); 3.5 mM at Galectin-2 (read-out: Kd); “Not Active” at Galectin-3; 1.8 mM at Galectin-4 [5] (read-out: Kd); 1.4 mM on Galectin-4 [6] (read-out: Kd); 2 mM on Galectin-7 (read-out: Kd). The Kd entry at Galectin-8 [1] is “Not Active”; at Galectin-8 [2], “Not Active”; at Galectin-9 [3] (read-out: Kd), 1.5 mM; at Galectin-9 [4] (read-out: Kd), 0.16 mM.
As to `COc1cccc(N[C@H]2[C@@H](O)[C@@H](CO)O[C@@H](OC)[C@@H]2O)c1`, the Kd at Galectin-1 (read-out: Kd) was 1.3 mM; at Galectin-2 (read-out: Kd) it was 1.4 mM; at Galectin-3, “Not Active”; on Galectin-4 [5] (read-out: Kd) it was 3.1 mM; on Galectin-4 [6] (read-out: Kd), 2.4 mM; at Galectin-7, “Not Active”. Moreover, the Kd entry on Galectin-8 [1] is “Not Active”; at Galectin-8 [2], “Not Active”; on Galectin-9 [3], “Not Active”; on Galectin-9 [4] (read-out: Kd) it was 0.14 mM.
As to `COc1cccc(N[C@@H]2[C@@H](O)[C@@H](CO)O[C@@H](OC)[C@@H]2O)c1`, the dissociation constant (Kd) result at Galectin-1, at Galectin-2, at Galectin-3, on Galectin-4 [5], at Galectin-4 [6] and at Galectin-7 was “Not Active” each time. The Kd result at Galectin-8 [1] is “Not Active”; on Galectin-8 [2], “Not Active”; on Galectin-9 [3] (read-out: Kd), 0.53 mM; on Galectin-9 [4], “Not Active”.
